Literature values, collected in paper PMC5766731 (Clinical Pharmacokinetics, 2017).

Conditions: cited from earlier work

For `O=C(O)CNC(=O)c1ncc(-c2cccc(Cl)c2)cc1O` [vadadustat], which “pharmacokinetics in CKD patients (stages 3 and 4)” value is on record?
The value was “not found to be significantly altered”.

And the “renal CL mechanisms, share of the radioactive dose” value (healthy subjects)?
Its value is “approximately 59%”.
